Key:
Assay type in all cases: functional, Homo sapiens
Set-up in all cases: dose or concentration left out as unconfirmed
[1] = test system: Colon cancer organoid; assay: Optimized Dual-Glo assay to identify co-culture induced drug vulnerabilities using donated chemical probes and chemogenomics kinase set in O20 CRC organoid and F20 CAF mono and co-culture. […] Cell viability is reported both mono and co-culture models.
[2] = test system: Colon cancer organoid; assay: Optimized Dual-Glo assay to identify co-culture induced drug vulnerabilities using donated chemical probes and chemogenomics kinase set in O14 CRC organoid and F14 CAF mono and co-culture. […] Cell viability is reported both mono and co-culture models.
[3] = test system: Colon cancer organoid; assay: Optimized Dual-Glo assay to identify co-culture induced drug vulnerabilities using donated chemical probes and chemogenomics kinase set in O06 CRC organoid and F06 CAF mono and co-culture. […] Cell viability is reported both mono and co-culture models.
[4] = Culture type Co-Culture, Transduced with Lucferase2-P2A-EGFP lentivirus
[5] = Culture type Co-Culture, Transduced with Renilla-dsRed lentivirus
[6] = Culture type Mono-Culture, Transduced with Lucferase2-P2A-EGFP lentivirus
[7] = Culture type Mono-Culture, Transduced with Renilla-dsRed lentivirus

SMILES	Cell Viability [1, 4] [%]	Cell Viability [1, 5] [%]	Cell Viability [1, 6] [%]	Cell Viability [1, 7] [%]	Cell Viability [2, 4] [%]	Cell Viability [2, 5] [%]	Cell Viability [2, 6] [%]	Cell Viability [2, 7] [%]	Cell Viability [3, 4] [%]	Cell Viability [3, 5] [%]	Cell Viability [3, 6] [%]	Cell Viability [3, 7] [%]
CC(C)NC(=O)N1CC[C@H](NC2=Nc3cc(F)ccc3N(CC(F)F)c3ccc(Cl)cc32)C1	55.1322	142.836	58.5304	89.934	105.089	97.5374	82.3325	100.505	86.0472	89.4587	81.5326	94.1375
Nc1nc(NCc2ccccc2)nc(-c2cccc(CO)c2)n1 [ZINC32547799]	123.978	66.6285	56.0193	93.8657	88.7631	96.1691	137.995	97.2983	97.3324	116.001	131.751	105.708
COc1ccc2c(c1)O[C@@H](c1ccc(OC)c(OC)c1)C[C@H]2NC(=O)C1(c2ccc3c(c2)OC(F)(F)O3)CC1 [A-1596586]	84.3805	101.93	87.5429	80.1817	96.097	118.297	94.5524	101.637	95.9961	117.187	95.5945	101.185
CC(=O)c1cc(-c2cc(C(=O)NC3CC3)ccc2C)c2ncccn12	68.1057	121.421	109.894	113.039	100.15	126.848	106.827	109.242	95.4153	118.795	58.2009	132.016
Cc1ccc(-c2ccc3c(ccc4sc5c(c43)NC[C@@H](C)NC5=O)n2)cn1	152.499	70.7863	154.638	67.5844	126.339	65.0441	182.208	70.7861	100.355	85.371	114.604	88.0896
CC(C)Oc1ccc(-c2c[nH]cc2CN(C)CCN)cc1	47.7555	252.195	49.3092	91.7276	38.1359	167.261	29.2667	88.3814	47.5822	178.793	30.9197	89.9891
COc1cc(Nc2ncc3c(n2)-c2ccc(Cl)cc2C(c2c(F)cccc2OC)=NC3)ccc1C(=O)O [ALISERTIB]	6.089	322.747	10.9419	116.531	16.1373	168.728	26.2121	103.392	20.0499	286.415	8.923	120.563
Cn1c(=O)[nH]c2cc(N3C(=O)c4cccc5c(CCCO)ccc(c45)C3=O)ccc21	125.633	89.8045	109.771	112.055	89.1085	114.749	98.1543	99.5703	115.119	110.623	83.0583	109.161
Cl.Cl.c1ccc([C@@H]2C[C@H]2NC2CCNCC2)cc1	42.5951	97.3617	75.8314	98.3245	82.3558	127.479	88.7328	113.061	78.4875	97.0217	85.9094	106.355
CCCOc1ccn2c(C(C)=O)cc(-c3ccccc3S(C)(=O)=O)c2c1	148.391	117.742	112.445	111.137	117.77	112.498	105.54	97.3869	121.922	129.269	172.982	130.382
CC1=CC(C)=[N+]2C1=C(CCCCc1cn(CC(=O)N3CCc4nc(NC(=O)[C@H]5CCN(C#N)C5)sc4C3)nn1)c1c(C)cc(C)n1[B-]2(F)F	77.2227	101.216	73.7517	82.644	88.5952	139.238	60.7776	90.2828	125.029	111.523	94.7301	81.9832
CN1CCN(Cc2ccc(Nc3ncc(Cl)c(Nc4ccccc4S(=O)(=O)N(C)C)n3)cc2)CC1 [DUBERMATINIB]	1.045	16.1981	1.218	12.0094	0.6117	1.021	1.267	1.499	0.5937	0.7151	0.6913	2.891
c1ccc2oc(-c3csc(C4CCN(Cc5nc6ncccc6[nH]5)CC4)n3)cc2c1	55.8408	105.216	98.8646	99.5308	119.834	111.13	91.6979	94.4275	118.221	124.83	91.0093	102.554
C[C@H]1CCCN1Cc1nc2cc(NC(=O)c3ccc4cnccc4c3)ccc2[nH]1	98.572	149.477	83.1729	94.0651	60.7566	146.013	100.332	105.964	122.515	131.721	188.522	107.295
C[C@H]1CC(=O)Nc2cc(C(=O)NCCC3CC3)ccc2N1C(=O)N1CC2CC2C1 (stereo partly specified)	105.905	112.87	104.527	89.0255	72.2289	101.41	80.5063	95.2313	115.835	132.849	119.799	120.051
Cc1c(C(=O)Nc2ccc(Oc3ccnc4[nH]cc(-c5ccccc5)c34)c(F)c2)c(=O)n(-c2ccc(F)cc2)n1C	223.97	22.9382	217.145	43.0843	84.4536	22.1268	155.311	25.4653	73.6786	56.2803	78.2312	39.3734
CN([C@@H]1CCc2c(CC(=O)O)c3cc(S(C)(=O)=O)ccc3n2C1)S(=O)(=O)c1ccc(F)cc1 [CRTH2-negative-control]	107.561	126.69	138.147	108.987	89.9276	115.062	117.685	97.6178	107.688	114.368	103.342	104.475
C[C@H](c1ccnc(Nc2nc3ccc(-c4cc(N(C)C)ncn4)cc3[nH]2)c1)N1CCN(C(=O)CC(F)(F)F)CC1 [BAY-985]	129.711	125.86	106.931	106.043	122.433	113.895	111.789	77.4572	134.436	180.071	90.5996	96.3949

Source: ChEMBL document CHEMBL5674860, “Optimized Dual-Glo Assay to identify co-culture-induced drug vulnerabilities in 3D CRC models” (2024)
